Data as given in US20160168224A1, “PROCESS FOR PREPARING AMPHIPHILIC PEPTIDE DERIVATIVES” (UNIVERSIDADE FEDERAL DE MINAS GERAIS - UFMG, priority 2013, published 2016).
Where two headings read alike, the source gives them in different places. No end group written: not given here.

Key:
[1] = system: spontaneously hypertensive rats (SP-SHR); assay: Blood pressure after topical application in spontaneously hypertensive rats; format: in vivo, rat
Source text: To evaluate the ability of the amphiphilic peptide derivatives to exert systemic biological action after topical application, spontaneously hypertensive rats (SP-SHR) and Ang-(1-7) derivatives, as prepared in Example 1 were used.
SP-SHR rats (4-5 months-old with about 270 g body weight) were instrumented for acute blood pressure measurements using tribromoethanol anesthesia. Just after the arterial catheter implantation, the interscapular region was shaved for topical application of the formulation. Blood pressure (BP) was recorded 24 h after surgery (base line BP=173.0±6.2). BP was recorded in unanesthesized animals under resting conditions for 1 h. After that, a solution of Ang-(1-7) derivatives was applied topically (20 μl at 1 mg/ml) and BP was continuously recorded for 6 h.

rats = settings: subcutaneous, 10 mg/(kg day) for 28 days; cited from earlier work
dogs = settings: subcutaneous, 10 mg/(kg day) for 28 days; cited from earlier work
[2] = human, in vivo; cited from earlier work
[3] = in vivo; cited from earlier work
[4] = topical application 20 μl at 1 mg/ml

Substance	duration of BP decrease [1, 4]	start of BP decrease after application [1, 4]	decrease of BP ([1]; topical application 20 μl at 1 mg/ml, BP recorded for 6 h)	change in BP ([1]; topical application)	detectable toxicities (rats)	detectable toxicities (dogs)	plasma half-life [2]	plasma half-life [3]
Ang-(1-7) ester derivatives: Product of Example 1: Ang-(1-7) esterified with 1-octanol, mainly diester at C-terminal and Asp carboxyl groups, plus monoesters (DRVYIHP; not fully specified (residue 1, C-terminus); also: mixture: mainly diester at C-terminal and Asp carboxyl groups, plus monoesters; UniProt P01019 25-31, looked up)	up to 6 h	90 min	up to 25 mmHg	–	–	–	–	–
Asp^1-Arg^2-Val^3-Tyr^4-Ile^5-His^6-Pro^7 [Ang-(1-7)]	–	–	–	did not cause significant change in BP	did not lead to any detectable toxicities	did not lead to any detectable toxicities	~30 min	about 10 min
